{
  "source": "paper PMC4385927",
  "about": "(Cell Death & Disease, 2015)",
  "key": {"[1]": {"tested_on": "global protein synthesis rates", "details": "mouse; cited from earlier work"}, "[2]": {"details": "cited from earlier work"}, "[3]": {"tested_on": "CHO cells expressing a luciferase reporter construct under control of the CHOP promoter", "experiment": "CHOP::luciferase assay", "type": "cell-based", "details": "5 μg/ml tunicamycin 6 h; ISRIB 1 μM, GSK2606414 20 μM; n=9", "description": "AR42j cells were cultured in DMEM supplemented with 10% Fetal calf serum (FetalClone II, Thermo Scientific, Loughborough, UK), 2 mM l-glutamine, 1 × Penicillin/Streptomycin and 1 × non-essential amino-acid solution and were maintained at 37 °C with 5% CO2. CHO-KI CHOP::luciferase cells were cultured in DMEM/F12(Ham) (Gibco, Paisley, UK) supplemented with 10% Fetal calf serum, 2 mM L-glutamine and 1 × Penicillin/Streptomycin, and were maintained at 37 °C with 5% CO2.\nCHO::KI cells stably transfected with a CHOP::luciferase reporter[27] were plated at a density of 1 × 10^5 per well in a six-well plate and left to grow overnight. Cells were treated for 6 h with 5 μg/ml tunicamycin or vehicle only (100% DMSO) and then extracted using the Steady-Glo luciferase assay system (Promega) before being quantified using the Glomax 96 microplate luminometer (Promega). ISRIB and GSK2606414 were incubated with 5 μg/ml tunicamycin for 6 h at 1 or 20 μM, respectively, before assaying as above."}, "[4]": {"details": "mouse, in vivo"}, "[5]": {"tested_on": "AR42j rat pancreatic acinar cells", "type": "cell-based"}, "[6]": {"experiment": "Plasma and brain concentration of trans-ISRIB by LC-MS/MS after single intraperitoneal injection", "type": "in vivo", "details": "wild-type mice; for Brain mean ±S.D. / Plasma mean ±S.D.: n=3", "description": "We synthesized ISRIB as described,[22] and confirmed penetration of the blood–brain barrier and measured mean brain:plasma ratios at various doses in wild-type mice. Intra-peritoneal administration of 0.25 mg/kg of trans-ISRIB (henceforth termed simply ISRIB), as used by Sidrauski et al.[22] to enhance memory in mice, gave a favorable pharmacokinetic profile (Table 1), so this dose was used for treatment.\nBlood and brain tissue were collected 8 or 24 h after dosing from mice treated with one doses of 0.25, 2.5 or 5 mg/kg trans-ISRIB, or vehicle. Blood plasma (up 0.2 ml, exact volume measured) was diluted with water to 0.2 ml and extracted with 0.4 ml of chloroform/methanol 2 : 1. After vortex mixing (10 min) and centrifugation (10 000 g, 10 min), the lower layer was dried with vacuum centrifugation and reconstituted in 50 μl of methanol. Brain tissue (one complete half, about 0.25 g weighed exactly) was homogenized in 0.5 ml of chloroform/methanol 2 : 1 and further processed exactly as the plasma samples. ISRIB quantitative analysis (using external standards) was performed by LC-MS/MS using a 4000 QTRAP mass spectrometer (Applied Biosystems, Foster City, CA, USA) equipped with a turbo ion source and LC series 10 AD VP (Shimadzu). The mobile phase was a water/acetonitrile gradient modified with 0.1% formic acid using a Agilent Poroshell 120 SB-C18 2.1 × 50 mm^2 (2.7 μm), which was maintained at 40 °C. LC-MS/MS multiple reaction monitoring used a precursor ion of mass/charge ratio (m/z) 452 and a product ion of m/z 265 in positive electrospray ionization mode for trans-ISRIB. Data analysis was performed with Analyst 1.4.1 in the quantitative mode."}, "[7]": {"tested_on": "global protein synthesis rates", "set-up": "species or system mice", "details": "mouse, in vivo, ip, 0.25 mg/kg"}, "ATF4": {"tested_on": "ATF4", "set-up": "species or system mice", "details": "mouse, in vivo, ip, 0.25 mg/kg"}, "total PrP and PrP^Sc": {"tested_on": "total PrP and PrP^Sc", "set-up": "species or system mice", "details": "mouse, in vivo"}, "Solubility (statement)": {"experiment": "Solubility (statement)", "type": "physicochemical"}, "eIF2α-P": {"tested_on": "eIF2α-P", "set-up": "species or system mice", "details": "mouse, in vivo, ip, 0.25 mg/kg"}, "[8]": {"tested_on": "Rocky Mountain Laboratory (RML) prions", "type": "in vivo, mice"}, "[9]": {"details": "single i.p. dose 0.25 mg/kg, 8 h"}, "[10]": {"details": "single i.p. dose 0.25 mg/kg, 24 h"}, "[11]": {"details": "single i.p. dose 2.5 mg/kg, 8 h"}, "[12]": {"details": "single i.p. dose 2.5 mg/kg, 24 h"}, "[13]": {"details": "prion-infected mice, ISRIB 0.25 mg/kg i.p. daily from 7 w.p.i., vehicle 9/9"}},
  "note": "Where two headings read alike, the source gives them in different places.",
  "data": [
    {"smiles": "Cn1cc(-c2ccc3c(c2)CCN3C(=O)Cc2cccc(C(F)(F)F)c2)c2c(N)ncnc21", "note": "[GSK2606414, 7-methyl-5-(1-{[3-(trifluoromethyl)phenyl]acetyl}-2,3-dihydro-1H-indol-5-yl)-7H-p yrrolo[2,3-d]pyrimidin-4-amine]", "values": [
      {"measurement": "recovery of protein synthesis rates in vivo", "setting": "[1]", "value": "~ 100%"},
      {"measurement": "toxicity of GSK2606414 treatment in prion-diseased mice", "setting": "[2]", "value": "weight loss and mild hyperglycemia"},
      {"measurement": "tunicamycin-induced CHOP induction (relative luminescence)", "setting": "[3]", "value": "completely inhibited"},
      {"measurement": "reduction in pancreatic weight", "setting": "[4]; Tg37+/-, po, 50 mg/kg", "value": "~ 50%"},
      {"measurement": "blood glucose levels", "setting": "[4]", "value": "mildly but significantly elevated"},
      {"measurement": "pancreas histology (H&E sections)", "setting": "[4]", "value": "extensive destruction of exocrine acinar pancreatic tissue"},
      {"measurement": "protein synthesis (translation) rates restored in vitro, % of control levels", "setting": "[5]; thapsigargin-treated AR42j cells, Figures 6a and b", "value": 90, "unit": "%"}
    ]},
    {"smiles": "O=C(COc1ccc(Cl)cc1)N[C@H]1CC[C@H](NC(=O)COc2ccc(Cl)cc2)CC1", "note": "[ISRIB]", "values": [
      {"measurement": "Mean ratio brain: plasma", "setting": "[6]; [9]", "value": 0.54},
      {"measurement": "Brain mean ±S.D.", "setting": "[6]; [9]", "value": "186.9 ± 46.8", "unit": "ng/g"},
      {"measurement": "Plasma mean ±S.D.", "setting": "[6]; [9]", "value": "345.3 ± 44.7", "unit": "ng/mL"},
      {"measurement": "Mean ratio brain: plasma", "setting": "[6]; [10]", "value": 1.62},
      {"measurement": "Brain mean ±S.D.", "setting": "[6]; [10]", "value": "16.0 ± 1.6", "unit": "ng/g"},
      {"measurement": "Plasma mean ±S.D.", "setting": "[6]; [10]", "value": "9.9 ± 1.0", "unit": "ng/mL"},
      {"measurement": "Mean ratio brain: plasma", "setting": "[6]; [11]", "value": 0.35},
      {"measurement": "Brain mean ±S.D.", "setting": "[6]; [11]", "value": "254.6 ± 70.3", "unit": "ng/g"},
      {"measurement": "Plasma mean ±S.D.", "setting": "[6]; [11]", "value": "721.6 ± 60.1", "unit": "ng/mL"},
      {"measurement": "Mean ratio brain: plasma", "setting": "[6]; [12]", "value": 0.9},
      {"measurement": "Brain mean ±S.D.", "setting": "[6]; [12]", "value": "39.7 ± 12.6", "unit": "ng/g"},
      {"measurement": "Plasma mean ±S.D.", "setting": "[6]; [12]", "value": "44.1 ± 11.6", "unit": "ng/mL"},
      {"measurement": "Mean ratio brain: plasma", "setting": "[6]; single i.p. dose 5 mg/kg, 8 h", "value": 0.43},
      {"measurement": "Brain mean ±S.D.", "setting": "[6]; single i.p. dose 5 mg/kg, 8 h", "value": "160.3 ± 17.6", "unit": "ng/g"},
      {"measurement": "Plasma mean ±S.D.", "setting": "[6]; single i.p. dose 5 mg/kg, 8 h", "value": "369.7 ± 114.4", "unit": "ng/mL"},
      {"measurement": "Mean ratio brain: plasma", "setting": "[6]; single i.p. dose 5 mg/kg, 24 h", "value": 0.91},
      {"measurement": "Brain mean ±S.D.", "setting": "[6]; single i.p. dose 5 mg/kg, 24 h", "value": "64.6 ± 9.2", "unit": "ng/g"},
      {"measurement": "Plasma mean ±S.D.", "setting": "[6]; single i.p. dose 5 mg/kg, 24 h", "value": "70.9 ± 30.6", "unit": "ng/mL"},
      {"measurement": "global protein synthesis rates, % of levels seen in uninfected controls", "setting": "[7]", "value": "~ 70%"},
      {"measurement": "levels of ATF4 (hippocampus)", "setting": "ATF4", "value": "reduced levels of ATF4 markedly"},
      {"measurement": "levels of total PrP and PrP^Sc", "setting": "total PrP and PrP^Sc", "value": "does not affect"},
      {"measurement": "tunicamycin-induced CHOP induction (relative luminescence)", "setting": "[3]", "value": "only partially reduced"},
      {"measurement": "solubility", "setting": "Solubility (statement)", "value": "high insolubility"},
      {"measurement": "blood glucose levels", "setting": "[4]", "value": "unaffected"},
      {"measurement": "loss of body weight at which animals had to be killed", "setting": "[4]", "value": 20, "unit": "%"},
      {"measurement": "pancreas histology (H&E sections)", "setting": "[4]", "value": "histologically normal"},
      {"measurement": "pancreatic weights", "setting": "[4]", "value": "normal"},
      {"measurement": "protein synthesis (translation) rates restored in vitro, % of control levels", "setting": "[5]", "value": "~ 50%"},
      {"measurement": "eIF2α-P levels (hippocampus)", "setting": "eIF2α-P", "value": "unchanged"},
      {"measurement": "animals that developed confirmatory signs of prion disease by 12 w.p.i.", "setting": "[8]; clinical observation, vehicle 9/9", "value": "0/12"},
      {"measurement": "survival in prion-infected mice", "setting": "[8]; n=12, vehicle 84±3 days (n=9), killed because of loss of 20% of body weight", "value": "96±4", "unit": "days post infection"},
      {"measurement": "Confirmatory signs: Dragging of limbs (front/hind) (mice affected/total)", "setting": "[8]; prion-infected mice, ISRIB 0.25 mg/kg i.p. daily from 7 w.p.i., vehicle 2/9", "value": "0/12"},
      {"measurement": "Confirmatory signs: Sustained hunched posture (mice affected/total)", "setting": "[8]; prion-infected mice, ISRIB 0.25 mg/kg i.p. daily from 7 w.p.i., vehicle 3/9", "value": "0/12"},
      {"measurement": "Early indicator signs: Unsustained hunched posture (mice affected/total)", "setting": "[8]; prion-infected mice, ISRIB 0.25 mg/kg i.p. daily from 7 w.p.i., vehicle 4/9", "value": "0/12"},
      {"measurement": "Confirmatory signs: Impairment of righting reflex (mice affected/total)", "setting": "[8]; prion-infected mice, ISRIB 0.25 mg/kg i.p. daily from 7 w.p.i., vehicle 5/9", "value": "0/12"},
      {"measurement": "Early indicator signs: Hind limb clasping (mice affected/total)", "setting": "[8]; prion-infected mice, ISRIB 0.25 mg/kg i.p. daily from 7 w.p.i., vehicle 8/9", "value": "7/12"},
      {"measurement": "Early indicator signs: Mild loss of coordination (mice affected/total)", "setting": "[8]; [13]", "value": "7/12"},
      {"measurement": "Early indicator signs: Rigid tail (mice affected/total)", "setting": "[8]; [13]", "value": "7/12"},
      {"measurement": "Scrapie incubation: Number of animals succumbing to prion disease", "setting": "[8]; [13]", "value": "0/12"},
      {"measurement": "neuronal loss in the hippocampus (neuropathological examination, H&E)", "setting": "[8]; prion-infected mice, ISRIB vs vehicle", "value": "prevented neuronal loss"}
    ]}
  ]
}
